Assay [1] has as its target T1, 14-3-3γ/ERRγ complex (Homo sapiens, UniProt P61981+P62508).
T1 construct: made in house; host or cells: E. coli NiCo21 (DE3)
The assay can be described thus: Peptide washout experiment on immobilized 14-3-3γ/ERRγ complex. In kind it is binding. Conditions: 100 μM compound; for total recovered ERRγ peptide: 5 washing steps of 20 min, normalized to recovery without 14-3-3γ; for initial peptide recovery: first washing step (DMSO 63%). Here is the method: Next, a washout experiment was performed to understand ternary 14-3-3/ERRγ/molecular lock complex dissociation. Fluorescein-labeled ERRγ was incubated overnight with biotin-functionalized 14-3-3γ in the presence of either DMSO, disulfide 1, aldehyde 3, or molecular lock 5 and subsequently immobilized on streptavidin-functionalized magnetic beads (Figure S17a). The beads were then washed five times in a peptide and compound-free buffer. During each wash step, the beads were incubated in the buffer for 20 min to allow dissociation of the ERRγ peptide from the immobilized 14-3-3γ. The fluorescence was then measured for all samples before capture, after capture, and after each washing step (Figure S17b), and the amount of peptide recovery was calculated. […] The analysis of individual washing steps provided further insight into the ternary complex dissociation kinetics (Figure 3e).
Figure S17. Washout experiment. (a) Schematic representation of washout experiment. Biotinylated 14-3-3γ (5 µM), fluorescein-labelled ERRγ 9-mer peptide (200 nM) and dual-reactive molecular lock 5 were preincubated overnight to form a ternary ‘crosslinked’ complex. This complex was immobilized on streptavidin-functionalized magnetic beads. Complex-functionalized beads were subsequently washed […] with 50 µL buffer. For each wash step, the complex was incubated 20 minutes in the buffer before removal to allow dissociation of the ERRγ peptide from the ternary complex. From samples before and after capturing, and from all wash fractions, we have measured the fluorescence to determine the amount of ERR γ peptide in each fraction. (b) Fluorescence signal of fluorescein-labelled ERRγ peptide after washout experiment. Samples are present for FAM - ERRγ incubated with and without biotinylated 14 -3-3γ and in presence of either DMSO (negative control), disulfide compound 1, aldehyde compound 3 or dual-reactive compound 5. Fluorescence was measured from samples before and after capturing and from all wash fractions. (c) % recovery of FAM -ERRγ in each wash fraction of washout experiment. Percentage is obtained by dividing the fluorescence of each sample (see panel a) by the fluorescence signal obtained before capturing (input sample = 100% , see panel a). […]
steps in presence of DMSO, or 100 µM compound 1, 3 or 5. Values are calculated by dividing the fluorescence signal (from panel a) of samples with 14-3-3 with the fluorescence signal of samples without 14-3-3, to correct for non-specific binding of peptide to the magnetic beads. […]
(§1) temperatures are based on three independent experiments from which the average and standard deviations were determined using excel. […]

Assay [2] addresses T1, 14-3-3γ/ERRγ complex. The assay can be described thus: Time-dependent fluorescence anisotropy (TD-FA) of ternary complex formation. The class given is binding. On the procedure:
Time-dependent fluorescence anisotropy (TD-FA) measurements provided insights in the kinetics of ternary complex (14-3-3/ERRγ/lock) formation (Figures S2 and S3). All fragments reached saturation by ∼12 h. […] Carboxamides 4–6 and 8–10 reached saturation within 5 h.
TD-FA experiments were also performed at different pH values to study ternary complex (14-3-3γ/ERRγ/compound) formation and the importance of the imine bond in the molecular lock (Figure 3b,c and Figures S14–S16). […] Similarly, the avidity of the 14-3-3/ERRγ/1 complex at equilibrium was not affected by pH (Figure 3b). In contrast, 5 and 10 elicited an inverse relationship between pH and KD^app (Figure 3c and Figure S14), connected to impaired imine bond formation at low pH.
In contrast, the formation of the ternary complexes of 14-3-3γ/ERRγ/compound with 1, 5, and 10 was time-dependent and pH-responsive (Figure 3b,c and Figures S15 and S16). […] At pH 6.5, the kinetics of disulfide bond formation was 50% slower. For instance, at pH 6.5, the maximum effect of 1 was reached after a 4.2 h incubation, compared to 1.7–0.8 h for pH 7.0–8.0 (Figure S16g). […] Effective disulfide formation thus appeared to aid in the imine bond formation of the dual-covalent locks. Combining the two reactive handles increased the effective molar concentration of the lock within the binding pocket, illustrating the need for dual reactivity and leading to enhanced 14-3-3/ERRγ avidity.
Figure S2. Time resolved fluorescence anisotropy screen. Time dependent results of 14-3-3γ titration to 10 nM fluorescein-labelled ERRγ peptide in presence of 100 µM compound 1-10 (or DMSO as negative control).
Fluorescence anisotropy was measured every 15 minutes for the first 2 hours after which it was measured every hour for 15 hours. The plate was measured one more time after 24 hours incubation.
(1 picture or pasted object on this page, not shown here)
Figure S3. Time-dependent FA-based apparent Kd analysis. Determined apparent K from fluorescence […]
anisotropy binding curves (see figure S1) and plotted over time (top row) for all compounds in this study to show a time dependent decrease in KD (increase in affinity) between 14-3-3γ and ERRγ as induced by the compounds.
Bottom graphs show the normalized version of the top graphs where the KD at t=0h was set to no effect (0%) and […]
Figure S16. Time- and pH dependent FA-based apparent K analysis. (a-c) Determined apparent K from […]
fluorescence anisotropy binding curves (see figure S15) and plotted over time for compounds 1, 5 and 10. Results show a time dependent decrease in KD (increase in affinity) between 14-3-3γ and ERRγ as induced by the compounds over time. […]
as §1

The structures appear in SMILES notation.

T1 sequence (P61981 whole entry, other chains not shown): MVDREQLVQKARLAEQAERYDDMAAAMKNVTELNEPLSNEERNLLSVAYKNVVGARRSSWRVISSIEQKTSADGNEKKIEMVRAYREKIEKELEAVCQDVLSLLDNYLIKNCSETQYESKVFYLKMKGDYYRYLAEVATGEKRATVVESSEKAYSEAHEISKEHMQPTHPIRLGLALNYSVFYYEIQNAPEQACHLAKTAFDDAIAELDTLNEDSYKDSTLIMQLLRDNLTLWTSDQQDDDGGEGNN

`CN(C)CCSSCCN(C)C(=O)c1cccc(F)c1` [compound 1, reference compound]: at 14-3-3γ/ERRγ complex [1], the “total recovered ERRγ peptide” value was found to be 58% and the initial peptide recovery was determined as 42%. Also, at 14-3-3γ/ERRγ complex [2] (100 μM compound, TD-FA), the “binding kinetics” value is “significantly slower binding kinetics than molecular locks 4–10”. For the same compound, on 14-3-3γ/ERRγ complex [2] (pH 6.5, 100 μM compound), the “incubation time to reach maximum effect” value was found to be 4.2 h.
Consider `CN(C)CCSSCCN(C)C(=O)c1ccc(C=O)c(F)c1` [compound 5], for which, at 14-3-3γ/ERRγ complex [1], the “total recovered ERRγ peptide” value was found to be 44% and the initial peptide recovery is on record as 36%. Further, at 14-3-3γ/ERRγ complex [2] (100 μM compound, TD-FA), the “binding kinetics” value is “fastest reaction kinetics” and the “time to saturation of ternary complex formation” value was 2 h.

(Values after article PMC10064330, “Reversible Dual-Covalent Molecular Locking of the 14-3-3/ERRγ Protein–Protein Interaction as a Molecular Glue Drug Discovery Approach” (Journal of the American Chemical Society, 2023).)
